Source: EP3572468B1, “CYANINE DYES AND THEIR USAGE FOR IN VIVO STAINING OF MICROORGANISMS” (PHILIPPS-UNIVERSITÄT MARBURG, priority 2018, dated 2019)

Tests used:
[1] = system: Escherichia coli (E. coli) NEB5α; experiment: Bacteria culture and staining: growth and FACS labeling of E. coli; type: cell-based; details: for bacterial growth in presence of dye: 2.5 µM dye in LB medium, OD600 over time, liquid and solid medium; for fluorescent labeling of live bacteria (FACS): 2.5 µM dye in culture medium, FACS at mid-exponential growth phase (OD600 = 2.0)
Description: (§1) Escherichia coli (E. coli) NEB5α (New England Biolabs) and antibiotic-resistant and -sensitive Klebsiella pneumoniae (K. pneumoniae) were cultured in Luria-Bertani (LB) solid medium (LB-Agar) overnight at 37°C. The source of the K. pneumoniae strands is of no relevance to the invention. The invention may be applied to all types of microorganisms (bacteria, viri, fungi etc.) or other cells, either contained within a sample or isolated from a sample. For staining, growth curve analysis and replating experiments bacteria were suspended in LB liquid medium at an OD600 nm of 1.0 and 800 µL were transferred into a culture tube containing 7.2 mL of LB liquid medium supplemented with DMSO or candidate dyes (2.5 µM) final concentration). Density of bacterial cultures was measured using an Ultrospec 10 Cell Density Meter with 600 nm LED source (Amersham Biosciences). For bacterial re-plating experiments bacteria were sampled at OD600 nm = 2.0 and 5 µL of indicated dilutions in LB-medium were spotted onto LB-agar plates (Fig. 5) or 100 µL were plated onto LB-agar plates followed by incubation at 37°C until colonies became visible.
Bacteria and macrophages were washed with PBS prior to flow cytometry and analysed using a Guava easyCyte flow cytometer (Millipore). FCS3.0 files were analysed using Flowing Software (http://flowingsoftware.btk.fi/). Cells were first gated in the forward- / side-scatter plot to exclude debries, followed by quadrant gating in plots using the fluorescence channels as shown above. For discrimination of live/dead cell discrimination cells in PBS were supplemented with 0.4 µL/mL propidium-iodide (5 mg/ml solution) followed by 5 min incubation on ice. Propidium iodide signal was recorded in the yellow channel.

dsDNACT = details: previously obtained results for DNA intercalators with the same DNA (dsDNACT); cited from earlier work
[2] = Atto 655 in PBS pH 7.4; Alexa Fluor 647 in 50 mM potassium phosphate pH 7.2 and 150 mM NaCl; cited from earlier work
[3] = Fluorescence quantum yield, dye alone; type: physicochemical; details: reference compounds determined against each other; Atto 655 in PBS pH 7.4, Alexa Fluor 647 in 50 mM potassium phosphate pH 7.2 and 150 mM NaCl
Description: Fluorescence intensity values for the quantum yields were determined on an ISS PC1 spectrofluorometer with an ISS 11650 lamp connected to an ISS Simpson model 109 and an ISS 80011 photomulitplier connected to a MGW Lauda K2R D and an Amherst Scientific Corp. 7600F for cooling. A VWR Refrigerated Circ 1160S was connected for the cooling of the cuvette chamber. It was measured in a 1400 µL fluorescence cuvette of HellmaAnalytics (104F-QS) at 25°C using the following settings: increment: 2.0 nm; integration time: 1.0 s; excitation slit width: 0.25 mm; emission slit width: 0.5 mm; excitation wavelength 590 nm. The emission spectra were recorded from 610 to 750 nm. From all spectra the corresponding background signal was substracted. Absorbance values were measured on a Jasco V-650 UV-Vis Spectrophotometer equipped with a Jasco PAC-743 temperature controlled cell holder and a Julabo F250 cooling system. UV-Vis titration measurements were performed in a 1400 µL quarz cuvette with a pathlength of 1 cm at 25°C using the following settings: increment: 1.0 nm; bandwidth: 1.0 nm; scanning speed: 1000 nm/min; scanning mode: continuous. From all values, the corresponding background signal was subtracted. The values for the reference compounds were measured in duplicates, the ones for 6-TramTO-3 with and without dsDNACT in triplicates. The quantum yields of 6-TramTO-3 with (30 eq.) and without dsDNACT were determined in 10 mM Tris pH 7.6 and 50 mM KCI. All measurement were following the procedure of Horiba and using the equation E1: ΦX = ΦST ((GradX)/(GradST)) ((((ηX))^2)/(((ηST))^2)) [formula] where Φ = fluorescence quantum yield, η = refractive index of the used solvent, Grad = gradient from the plot of integrated fluorescence intensity vs. absorbance and the subscripts ST and X denote standard and tested sample. […]
Table 3: Determined slopes and corresponding quantum yields for the two reference compounds Alexa Flour® 647 and Atto 655 and for 6-TramTO-3 with and without dsDNACT.

[4] = system: multiresistant K. pneumoniae; experiment: Resistance to standard antibiotics, bacterial dilutions spotted onto solid medium; type: cell-based, Klebsiella pneumoniae; details: dilutions spotted onto LB solid medium supplemented with antibiotic, outgrowth 48 h
Description: as §1

[5] = system: antibiotic-sensitive K. pneumoniae; experiment: as above; type: cell-based, Klebsiella pneumoniae; details: the other (antibiotic-sensitive) K. pneumoniae strain; dilutions spotted onto LB solid medium supplemented with antibiotic, outgrowth 48 h
Description: as §1

E. coli = experiment: as above; type: cell-based, Escherichia coli; details: dilutions spotted onto LB solid medium supplemented with antibiotic, outgrowth 48 h
Description: as §1

[6] = Molar extinction coefficient determination; type: physicochemical
Description: The concentration determination and measurement of full UV-Vis spectra were performed on a Tecan 20M at room temperature. The measurements were performed in a 1400 µL quarz cuvette with a pathlength of 1 cm in a volume of 1 mL.
For the accurate determination of our compounds 6-TramTO-3 the extinction coefficient was calculated. A specific amount (< 2.00 mg) of the compound was weighted on a Mettler Toledo XP6 and dissolved in a known amount of milli-Q water. Increasing amounts of such stock solution were added into a 1 mL cuvette filled with 1 ml of milli-Q water. The corresponding absorbance of each addition was measured on a Tecan Spark 20M at the maximum at 625 nm and without exceeding 10% of the initial volume. In all the cases the absorbance was between 0.1 and 1 AU. to be in concordance with Lambert-Beer law (equation E2). A = ε l c [formula]
In this equation (E2): A = absorbance of the solution; I = length of the cuvette; c = concentration; ε = molar extinction coefficient.
The lineal regression of the obtained absorbance measurements versus the concentrations of 6-TramTO-3 allowed us to obtain the molar extinction coefficient. These measurements were repeated three times independently i.e. from three different stock solutions. The mean extinction coefficient and the standard deviation of 6-TramTO-3 at a wavelength of 625 nm in milli-Q water was 59403 ±646 M^-1cm^-1.
The mean extinction coefficient and the standard deviation of 6-NH2TO-3 and 6-AzTO-3 were determined following the above described procedure. The extinction coefficient of 6-NH2TO-3 was determined in milli-Q water, whereas the extinction coefficient of 6-AzTO-3 was determined in DMSO due to its low aqueous solubility. […] For the spectrum of 6-AzTO-3 1% of DMSO was added for a better solubility. Fig. 20 and Fig. 21 show the linear regressions from the three independent measurements. Table 4 summarized the molar extinction coefficient obtained. Table 4: Determined mean extinction coefficients and standard deviations of 6-AzTO-3 in DMSO and 6-TramTO-3 and 6-NH2TO-3 in milli-Q water.

bacteria = details: in vivo labeling of bacteria for macrophage uptake assays; indicative of toxicity; cited from earlier work
[7] = Aqueous solubility (remark); type: physicochemical; details: reason why the extinction coefficient was determined in DMSO

Molecule: carboxyfluorescein succinimidyl ester [CFSE]
- bacterial growth in presence of dye [1]: compatible with bacterial growth
- fluorescent labeling of live bacteria (FACS) [1]: hardly labeled bacteria

Molecule: CN(C)c1ccc2nc3ccc(=[N+](C)C)cc-3sc2c1 [methylene blue]
- Kd (dsDNACT): 46 µM

Molecule: CN(C)c1ccc2cc3ccc(N(C)C)cc3nc2c1 [acridine orange]
- Kd (dsDNACT): 36 µM

Molecule: CC[N+]1=c2cc3c(cc2CCC1)=Nc1cc2c(cc1O3)N(CCCC(=O)ON1C(=O)CCC1=O)C(C)(C)CC2CS(=O)(=O)[O-] (centres unmarked) [Atto 655, reference compound]
- quantum yield (lit.) [2]: 0.30
- quantum yield [3]: 0.31

Molecule: CC1(C)S[C@@H]2[C@H](NC(=O)[C@H](N)c3ccccc3)C(=O)N2[C@H]1C(=O)O [ampicillin]
- sensitivity to antibiotic [4]: insensitive
- sensitivity to antibiotic [5]: sensitive
- sensitivity to antibiotic (E. coli): sensitive

Molecule: CC[n+]1ccc(/C=C/C=C2\Sc3ccccc3N2CCCCCCN)c2ccccc21.O=C([O-])C(F)(F)F [6-NH2TO-3, mono(4-((1E,3Z)-3-(3-(6-ammoniohexyl)benzo[d]thiazol-2(3H)-ylidene)prop-1-enyl)-1-ethylquinolinium) mono(2,2,2-trifluoroacetate)]
- mean extinction coefficient ([6]; in milli-Q water, absorbance maximum at 625 nm): 90043 ± 418 M⁻¹ cm⁻¹

Molecule: SyTO-9^™
- bacterial growth in presence of dye [1]: delayed bacterial growth substantially
- fluorescent labeling of live bacteria (FACS) [1]: efficient green-fluorescent labeling
- colony formation of the stained bacteria (bacteria): reduced colony formation

Molecule: CC[n+]1ccc(/C=C/C=C2\Sc3ccccc3N2CCCCCCN=[N+]=[N-])c2ccccc21.[I-] [6-AzTO-3, 4-((1E,3Z)-3-(3-(6-azidohexyl)benzo[d]thiazol-2(3H)-ylidene)prop-1-en-1-yl)-1-ethylquinolin-1-ium iodide]
- aqueous solubility [7]: low
- mean extinction coefficient ([6]; in DMSO, absorbance maximum at 639 nm): 110203 ± 1577 M⁻¹ cm⁻¹

Molecule: O=C(N[C@H](CO)[C@H](O)c1ccc([N+](=O)[O-])cc1)C(Cl)Cl [chloramphenicol]
- sensitivity to antibiotic [4]: insensitive
- sensitivity to antibiotic [5]: sensitive
- sensitivity to antibiotic (E. coli): sensitive

Molecule: Alexa Fluor^® 647 [reference compound]
- quantum yield (lit.) [2]: 0.33
- quantum yield [3]: 0.32
